≈ marks a conversion by molar mass, not a printed value. Calls of active or inactive are those of the source. The calls are words filed in the database; no cut-off is given here.

Holding throughout (type): functional, cell-based
The subject of one assay is KBVIN. In words: Cytotoxicity against human KBVIN cells up to 20 ug/mL.
The test system of assay [1] is KB. In words: Cytotoxicity against human KB cells up to 20 ug/mL.
Assay [2] relates to PC-3. In words: Cytotoxicity against human PC3 cells up to 20 ug/mL.
Assay [3] deals with MCF7. In words: Cytotoxicity against human MCF7 cells up to 20 ug/mL.
In assay [4] the test system is DU-145. In words: Cytotoxicity against human DU145 cells up to 20 ug/mL.
Assay [5] has as its system HCT-8. In words: Cytotoxicity against human HCT8 cells up to 20 ug/mL.
Assay [6] concerns A549. In words: Cytotoxicity against human A549 cells up to 20 ug/mL.
For assay [7], the system named is KB. In words: Cytotoxicity against human KB cells.
Assay [8] concerns PC-3. The experiment in a line: Cytotoxicity against human PC3 cells.
Assay [9] has as its system HCT-8. The experiment in a line: Cytotoxicity against human HCT8 cells.
The nature of assay [10]: Cytotoxicity against human KBVIN cells.
Assay [11] relates to MCF7. The experiment in a line: Cytotoxicity against human MCF7 cells.
Assay [12] concerns DU-145. The experiment in a line: Cytotoxicity against human DU145 cells.
Assay [13] deals with A549. The experiment in a line: Cytotoxicity against human A549 cells.
[14] abbreviates: Homo sapiens, KB, read-out: EC50.
The mark [15] stands for this setting: Homo sapiens, PC-3, read-out: EC50.
Setting [16] is: Homo sapiens, KBVIN, read-out: EC50.
Where [17] appears, read: Homo sapiens, DU-145, read-out: EC50.
Where [18] appears, read: Homo sapiens, A549, read-out: EC50.

In the case of `COc1cc2ccc3c(OC)cc(OC)c(OC)c3c2c(OC)c1OC`, the outcome in the assay with KBVIN, in the assay on KB [1], with PC-3 [2], in the assay with MCF7 [3], in the assay on DU-145 [4] and in the assay with HCT-8 [5] was inactive. Moreover, the result with A549 [6] was inactive.

As to `COC1=CC(=O)c2ccc3ccccc3c2C1=O` [ANNOQUINONE A], the EC50 (as a rule, the concentration that produces a half-maximal response) with KB [7] (setting [14]) came out at 1.6 µg/mL (≈ 6.72 µM).

As for `COC1=CC(=O)c2ccc3cc(OC)c(OC)c(OC)c3c2C1=O`, the EC50 was 7.81 µg/mL (≈ 23.8 µM) in the assay with PC-3 [8] (setting [15]); 15.2 µg/mL (≈ 46.4 µM) in the assay on HCT-8 [9]; 9.14 µg/mL (≈ 27.8 µM) in [10] (setting [16]); 5.33 µg/mL (≈ 16.2 µM) in the assay with MCF7 [11]; 4.4 µg/mL (≈ 13.4 µM) in the assay on DU-145 [12] (setting [17]); 8.08 µg/mL (≈ 24.6 µM) in the assay on KB [7] (setting [14]). Besides, in the assay on A549 [13] (setting [18]), the EC50 came to 7.06 µg/mL (≈ 21.5 µM).

As to `COc1cc(OC)c(OC)c(-c2c(C)cc(OC)c(OC)c2OC)c1C=O`, the outcome in the assay with KBVIN, in the assay on KB [1], with PC-3 [2], with MCF7 [3], in the assay on DU-145 [4] and with HCT-8 [5] was inactive. Besides, the result with A549 [6] was inactive.

Take `COC1=CC(=O)C(C=O)=C(c2c(C)cc(OC)c(OC)c2OC)C1=O`: the result in the assay with KBVIN, in the assay with KB [1], with PC-3 [2], in the assay with MCF7 [3], in the assay with DU-145 [4] and in the assay with HCT-8 [5] was inactive. In addition, the outcome with A549 [6] was inactive.

For the molecule `COC(=O)C1=C(c2c(C)cc(OC)c(OC)c2OC)C(=O)C(OC)=CC1=O`, the EC50 in the assay on PC-3 [8] (setting [15]) turned out to be 6.09 µg/mL (≈ 16.2 µM); in the assay on HCT-8 [9] it was 5.85 µg/mL (≈ 15.5 µM); in assay [10] (setting [16]), 5.48 µg/mL (≈ 14.6 µM); in the assay with MCF7 [11], 6.4 µg/mL (≈ 17 µM); with DU-145 [12] (setting [17]) it was 4.74 µg/mL (≈ 12.6 µM); in the assay with KB [7] (setting [14]), 4.02 µg/mL (≈ 10.7 µM). Also, in the assay with A549 [13] (setting [18]), the EC50 is 6.12 µg/mL (≈ 16.3 µM).

Consider `COC1=CC(=O)c2ccc3cc(OC)c(OC)c(O)c3c2C1=O` [CALANQUINONE A], for which the EC50 in the assay with PC-3 [8] (pc-3) was found to be 0.75 µg/mL (≈ 2.39 µM); in the assay with HCT-8 [9] it was 0.29 µg/mL (≈ 0.923 µM); in assay [10] (kbvin), 0.24 µg/mL (≈ 0.764 µM); in the assay with DU-145 [12] (du-145), 0.48 µg/mL (≈ 1.53 µM); with KB [7] (kb), 0.3 µg/mL (≈ 0.955 µM); in the assay with A549 [13] (a549), 0.31 µg/mL (≈ 0.986 µM).

The values are drawn from ChEMBL document CHEMBL1155903, “Cytotoxic calanquinone A from Calanthe arisanensis and its first total synthesis” (Bioorg Med Chem Lett, 2008).
